Data as given in article PMC5601486, “Identification of 4-phenylquinolin-2(1H)-one as a specific allosteric inhibitor of Akt” (Scientific Reports, 2017).

Assays:
Test in all cases: KINOMEscan
Conditions in all cases: 50000 nM
SRC = tested on: SRC
Method: KINOMEscan™ selectivity screen
(§1) The assay was perfor med at DiscoveRx Corporation according the methods published previously5. Briefly, Kinase-tagged T7 phage strains were grown in parallel in an E. coli host derived from the BL21 strain. E. coli were grown to log-phase and infected with T7 phage from a frozen stock and incubated with shaking at 32°C until lysis (90-150 minutes). The kinases were produced in HEK-293 cells and subsequently tagged with DNA for qPCR detection. Streptavidin-coated magnetic beads were treated with biotinylated small molecule ligands to generate affinity resins for kinase
(§2) inhibitor or DMSO control was performed in polypropylene 384-well plates for 1 hr at room temperature. After wash with PBS buffer containing 0.05% Tween 20, the beads were incubated in elution buffer (PBS containing 0.05 % Tween 20 and 0.5 μM non-biotinylated affinity ligand) for 30 minutes at room temperature. The kinase concentration in the eluates was measured by qPCR.

ZAK = tested on: ZAK
Method: KINOMEscan™ selectivity screen
(§3) Briefly, Kinase-tagged T7 phage strains were grown in parallel in an E. coli host derived from the BL21 strain. E. coli were grown to log-phase and infected with T7 phage from a frozen stock and incubated with shaking at 32°C until lysis (90-150 minutes). The kinases were produced in HEK-293 cells and subsequently tagged with DNA for qPCR detection. Streptavidin-coated magnetic beads were treated with biotinylated small molecule ligands to generate affinity resins for kinase
as §2

[1] = tested on: RPS6KA4(Kin.Dom.1-N-terminal)
Method: KINOMEscan™ selectivity screen
as §3, §2

MAK = tested on: MAK
Method: KINOMEscan™ selectivity screen
as §1, §2

EPHB2 = tested on: EPHB2
Method: KINOMEscan™ selectivity screen
as §1, §2

MAPKAPK2 = tested on: MAPKAPK2
Method: KINOMEscan™ selectivity screen
as §1, §2

MELK = tested on: MELK
Method: KINOMEscan™ selectivity screen
as §1, §2

[2] = tested on: ABL1(Y253F)-phosphorylated
Method: KINOMEscan™ selectivity screen
as §1, §2

PFCDPK1(P.falciparum) = tested on: T1, PFCDPK1(P.falciparum); assay type: binding
T1 construct: purchased DiscoveRx KINOMEscan

MARK3 = tested on: MARK3
Method: KINOMEscan™ selectivity screen
as §1, §2

KIT(L576P) = tested on: KIT(L576P)
Method: KINOMEscan™ selectivity screen
as §3, §2

[3] = tested on: RPS6KA5(Kin.Dom.1-N-terminal)
Method: KINOMEscan™ selectivity screen
as §1, §2

ERK1 = tested on: ERK1
Method: KINOMEscan™ selectivity screen
as §1, §2

[4] = tested on: RSK3(Kin.Dom.2-C-terminal)
Method: KINOMEscan™ selectivity screen
as §1, §2

BRAF(V600E) = tested on: BRAF(V600E)
Method: KINOMEscan™ selectivity screen
as §1, §2

CSNK2A2 = tested on: CSNK2A2
Method: KINOMEscan™ selectivity screen
as §3, §2

AKT2 = tested on: AKT2
Method: KINOMEscan™ selectivity screen
as §3, §2

EPHA7 = tested on: EPHA7
Method: KINOMEscan™ selectivity screen
as §1, §2

PIK4CB = tested on: PIK4CB
Method: KINOMEscan™ selectivity screen
as §1, §2

CLK2 = tested on: CLK2
Method: KINOMEscan™ selectivity screen
as §1, §2

LYN = tested on: LYN
Method: KINOMEscan™ selectivity screen
as §1, §2

SNRK = tested on: SNRK
Method: KINOMEscan™ selectivity screen
(§4) The assay was perfor med at DiscoveRx Corporation according the methods published previously5. […] The kinases were produced in HEK-293 cells and subsequently tagged with DNA for qPCR detection. Streptavidin-coated magnetic beads were treated with biotinylated small molecule ligands to generate affinity resins for kinase
as §2

GRK7 = tested on: GRK7
Method: KINOMEscan™ selectivity screen
as §4, §2

MUSK = tested on: MUSK
Method: KINOMEscan™ selectivity screen
(§5) The kinases were produced in HEK-293 cells and subsequently tagged with DNA for qPCR detection. Streptavidin-coated magnetic beads were treated with biotinylated small molecule ligands to generate affinity resins for kinase
as §2

BMPR2 = tested on: BMPR2
Method: KINOMEscan™ selectivity screen
as §1, §2

CAMK4 = tested on: CAMK4
Method: KINOMEscan™ selectivity screen
as §1, §2

AURKC = tested on: AURKC
Method: KINOMEscan™ selectivity screen
as §1, §2

DAPK1 = tested on: DAPK1
Method: KINOMEscan™ selectivity screen
as §1, §2

CIT = tested on: CIT
Method: KINOMEscan™ selectivity screen
as §5, §2

LZK = tested on: LZK
Method: KINOMEscan™ selectivity screen
as §3, §2

RET(V804M) = tested on: RET(V804M)
Method: KINOMEscan™ selectivity screen
as §1, §2

CSF1R = tested on: CSF1R
Method: KINOMEscan™ selectivity screen
as §1, §2

RIOK1 = tested on: RIOK1
Method: KINOMEscan™ selectivity screen
as §1, §2

MKNK2 = tested on: MKNK2
Method: KINOMEscan™ selectivity screen
as §3, §2

[5] = tested on: ABL1(T315I)-nonphosphorylated
Method: KINOMEscan™ selectivity screen
as §3, §2

FLT3(R834Q) = tested on: FLT3(R834Q)
Method: KINOMEscan™ selectivity screen
as §4, §2

PIM1 = tested on: PIM1
Method: KINOMEscan™ selectivity screen
as §1, §2

ABL1-phosphorylated = tested on: ABL1-phosphorylated
Method: KINOMEscan™ selectivity screen
as §1, §2

[6] = tested on: RSK2(Kin.Dom.2-C-terminal)
Method: KINOMEscan™ selectivity screen
as §1, §2

FGFR2 = tested on: FGFR2
Method: KINOMEscan™ selectivity screen
as §1, §2

MAP4K3 = tested on: MAP4K3
Method: KINOMEscan™ selectivity screen
as §1, §2

EGFR(L858R,T790M) = tested on: EGFR(L858R,T790M)
Method: KINOMEscan™ selectivity screen
as §1, §2

MLK2 = tested on: MLK2
Method: KINOMEscan™ selectivity screen
as §1, §2

MEK2 = tested on: MEK2
Method: KINOMEscan™ selectivity screen
as §1, §2

WEE2 = tested on: WEE2
Method: KINOMEscan™ selectivity screen
as §4, §2

PIP5K1C = tested on: PIP5K1C
Method: KINOMEscan™ selectivity screen
as §1, §2

PIK3CA(E545K) = tested on: PIK3CA(E545K)
Method: KINOMEscan™ selectivity screen
as §1, §2

DRAK1 = tested on: DRAK1
Method: KINOMEscan™ selectivity screen
as §3, §2

ADCK3 = tested on: ADCK3
Method: KINOMEscan™ selectivity screen
as §1, §2

## Oc1cc(-c2ccccc2)c2ccccc2n1 [G7, 4-phenylquinolin-2(1H)-one]
SRC
  Percent Control: 65%
ZAK
  Percent Control: 100%
[1]
  Percent Control: 61%
MAK
  Percent Control: 77%
EPHB2
  Percent Control: 93%
MAPKAPK2
  Percent Control: 100%
MELK
  Percent Control: 97%
[2]
  Percent Control: 56%
PFCDPK1(P.falciparum)
  Percent Control: 83%
MARK3
  Percent Control: 87%
KIT(L576P)
  Percent Control: 22%
[3]
  Percent Control: 89%
ERK1
  Percent Control: 89%
[4]
  Percent Control: 59%
BRAF(V600E)
  Percent Control: 71%
CSNK2A2
  Percent Control: 70%
AKT2
  Percent Control: 93%
EPHA7
  Percent Control: 89%
PIK4CB
  Percent Control: 64%
CLK2
  Percent Control: 64%
LYN
  Percent Control: 88%
SNRK
  Percent Control: 84%
GRK7
  Percent Control: 52%
MUSK
  Percent Control: 75%
BMPR2
  Percent Control: 82%
CAMK4
  Percent Control: 100%
AURKC
  Percent Control: 66%
DAPK1
  Percent Control: 63%
CIT
  Percent Control: 74%
LZK
  Percent Control: 94%
RET(V804M)
  Percent Control: 85%
CSF1R
  Percent Control: 7.4%
RIOK1
  Percent Control: 95%
MKNK2
  Percent Control: 65%
[5]
  Percent Control: 86%
FLT3(R834Q)
  Percent Control: 76%
PIM1
  Percent Control: 49%
ABL1-phosphorylated
  Percent Control: 73%
[6]
  Percent Control: 100%
FGFR2
  Percent Control: 80%
MAP4K3
  Percent Control: 89%
EGFR(L858R,T790M)
  Percent Control: 90%
MLK2
  Percent Control: 100%
MEK2
  Percent Control: 72%
WEE2
  Percent Control: 84%
PIP5K1C
  Percent Control: 44%
PIK3CA(E545K)
  Percent Control: 98%
DRAK1
  Percent Control: 65%
ADCK3
  Percent Control: 92%
